# Assay results from US7906133B2, “Optimized dosing for drug coated stents” (Boston Scientific Scimed, Inc., priority 2002, dated 2011).
# How the values were obtained:
# [1] = biological response as a function of release rate from paclitaxel coated stent (FIGS. 2a-2c); format: in vivo; conditions: dose 1.0 micrograms/mm^2
# Excerpt: FIG. 2 and FIGS. 2a-2c illustrate the difference in biological response resulting from the difference in release rate from a paclitaxel coated stent.
# (§1) Using the 1.0 micrograms/mm^2 dose as an exemplary embodiment, the effects of release rate were investigated. Metallic stents were coated with paclitaxel in a styrene-isobutylene based block copolymer carrier with the weight percent of paclitaxel in the carrier varying from approximately 8.8 to about 35%. The dose of drug applied to the stents was kept at 1.0 micrograms/mm^2, and the total drug dose was held constant by varying total coating weight.
# [2] = in vitro release studies involving an aqueous environment (FIG. 2); format: physicochemical; conditions: dose 1.0 micrograms/mm^2
# Excerpt: as §1
# healthy porcine arteries = conditions: dosing of approximately 1.0 micrograms/mm^2 in a polymer coating
# Excerpt: Paclitaxel coated metallic stents of various doses were implanted into healthy porcine arteries to determine the effect of dosage on biological response. Dosages used were approximately 4.0, 2.0, 1.0, and 0.6 micrograms per square millimeter of the stent surface area, corresponding to approximate total dosages of 345, 175, 85, and 50 micrograms per stent. The paclitaxel was contained within a styrene-isobutylene based block copolymer applied to the stent struts.
# [3] = weight fraction less than about 35% in polymer carrier
compound,measurement,setting,value
CC(=O)O[C@H]1C(=O)[C@@]2(C)[C@H]([C@H](OC(=O)c3ccccc3)[C@]3(O)C[C@H](OC(=O)[C@H](O)[C@@H](NC(=O)c4ccccc4)c4ccccc4)C(C)=C1C3(C)C)[C@]1(OC(C)=O)CO[C@@H]1C[C@@H]2O [paclitaxel],fibrin accumulation,[1]; fastest release rate (FIG. 2a),noticeable fibrin accumulation
same,fibrin accumulation,[1]; slower release rates (FIGS. 2b and 2c),did not result in this effect
same,paclitaxel released within two days,[2]; 8.8% weight fraction in styrene-isobutylene based block copolymer carrier,about 2 micrograms
same,paclitaxel released within two days,[2]; 35% weight fraction in styrene-isobutylene based block copolymer carrier,approximately 45 micrograms
same,release profile over time,[2]; all curves in FIG. 2 (weight fractions 8.8 to 35%),"relatively rapid release rate over the first few days, followed by a slower, sustained release over up to about two weeks"
same,paclitaxel released within ten days,[2]; [3],less than 60 micrograms
same,paclitaxel released within two days,[2]; [3],less than 45 micrograms
same,safety and efficacy,healthy porcine arteries,superior safety and efficacy
